Like-named read-outs stand apart in the source and are kept apart here. Bounds are passed on as bounds.

Test [1] has as its target T1, human MAGL (Homo sapiens (Human), UniProt Q99685). In words: MAGL inhibition potency assay with 4NPA substrate (methods of Table C). It counts as biochemical. An excerpt: Cayman's Monoacylglycerol Lipase Inhibitor Screening Assay provides a method for screening human MAGL inhibitors. MAGL hydrolyzes 4-nitrophenylacetate resulting in a yellow product, 4-nitrophenol, with an absorbance of 405-412 nm. The monoacylglycerol lipase inhibitor screening assay kit from Cayman Chemical was used to measure the MAGL potency for the compounds in Table 3 and Table 4. Cayman's Monoacylglycerol Lipase Inhibitor Screening Assay provides a method for screening human MAGL inhibitors. MAGL hydrolyzes 4-nitrophenylacetate resulting in a yellow product, 4-nitrophenol, with an absorbance of 405-412 nm. MAGL Inhibition was measured by the following assay. Monoacylglycerol Lipase (MAGL) inhibition was measured using recombinant MAGL enzyme (aa 2-303 RBC, internal preparation) and the substrate 4-Nitrophenyl acetate (4NPA) (Sigma-Aldrich, N8130). Hydrolysis of the substrate in the presence of the enzyme was measured by absorbance at 405 nm. 10 μL of assay buffer (10 mM Tris pH 7.5, 1 mM EDTA, 0.9% DMSO) was added to a black 384-well non-binding plate with clear bottom (Greiner, 781906) for each reaction. […] DMSO control wells were included for reference. A 10.8 nM (1.8×) MAGL mix in assay buffer was prepared, with […] added to each reaction well, for a final assay concentration of 6 nM. No enzyme wells received 25 μL of buffer. Plate was incubated at room temperature for 30 minutes. 35 mM solution of 4NPA in methanol was prepared daily. A 4.5×4NPA substrate solution was prepared in assay buffer and 10 μL was added to each reaction well, for a final assay concentration of 0.25 mM. Plate was spun for 1 minute at 1000 rpm before measuring absorbance using a CLARIOstar plate reader (BMG Labtech). A kinetic reading at 405 nm was done every minute for 30 minutes. Data was analyzed using the linear slope of the reaction progress curve and the average of the no-enzyme wells (background) was subtracted from the data. The background-subtracted slope data was converted to % activity using the average of wells with enzyme and DMSO vehicle. IC50s were calculated using GraphPad software (Sigmoidal dose response, variable slope equation). […] Table 5 provides potency measurements of MAGL inhibition measured using the Potency Assay of Example 18 above, with the following modifications described in Table C. [table]

In test [2] the target is T1, human MAGL. The test is described as above. The class given is biochemical. The source holds these as a separate data set.
[3] abbreviates: Method 1: Reaction Biology MAGL enzyme, 6 nM, read-out: MAGL Potency (Detection Method).
Where [4] appears, read: Method 2: Cayman Chemical MAGL enzyme, 10 nM, read-out: MAGL Potency (Detection Method).
Setting [5] is: Method 3: Reaction Biology MAGL enzyme, 10 nM, read-out: MAGL Potency (Detection Method).
[6] abbreviates: Method 2: Cayman Chemical MAGL enzyme, 10 nM, read-out: Potency (MAGL inhibition).
The mark [7] stands for this setting: Method 14: Reaction Biology MAGL enzyme, 6 nM, read-out: MAGL Potency (Detection Method).
The mark [8] stands for this setting: Method 14: Reaction Biology MAGL enzyme, 6 nM, read-out: Potency (MAGL inhibition).
Where [9] appears, read: Method 6: Reaction Biology MAGL enzyme, 6 nM, read-out: Potency (MAGL inhibition).
Setting [10] is: Method 12: Reaction Biology MAGL enzyme, 15 nM, read-out: Potency (MAGL inhibition).

T1 sequence (Q99685 2-303): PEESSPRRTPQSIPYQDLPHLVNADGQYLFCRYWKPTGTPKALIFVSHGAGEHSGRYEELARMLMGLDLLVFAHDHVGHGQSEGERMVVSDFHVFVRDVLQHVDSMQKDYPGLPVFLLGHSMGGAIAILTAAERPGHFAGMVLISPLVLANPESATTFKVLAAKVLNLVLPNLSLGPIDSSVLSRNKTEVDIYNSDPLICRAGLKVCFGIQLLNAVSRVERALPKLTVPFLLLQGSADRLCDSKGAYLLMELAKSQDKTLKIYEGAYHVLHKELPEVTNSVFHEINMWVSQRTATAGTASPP

As to `Cc1cc(C2CC3(C2)CN(C(=O)c2cc(O)c(F)cc2F)C3)n(-c2ccccc2C)n1` [Compound 126, (2,4-difluoro-5-hydroxyphenyl) (6-(3-methyl-1-(o-tolyl)-1H-pyrazol-5-yl)-2-azaspiro[3.3]heptan-2-yl) methanone], the IC50 in test [1] (setting [3]), in test [2] (setting [4]) and in test [2] (setting [5]) was less than 0.05 µM each time.
For `Cc1cc(C2CC3(C2)CN(C(=O)c2cc(O)ccc2C#N)C3)n(-c2ccccc2C)n1` [Compound 128, 4-hydroxy-2-({6-[3-methyl-1-(o-tolyl)-5-pyrazolyl]-2-aza-2-spiro[3.3]heptyl}carbonyl)benzonitrile], the IC50 in test [1] (setting [3]) and in test [2] (setting [4]) was less than 0.05 µM in each case.
Regarding `Cc1cc(C2CC3(C2)CN(C(=N)c2cc(O)ccc2F)C3)n(-c2ccccc2C)n1` [Compound 144], the IC50 in test [2] (setting [6]) is more than 10 µM.
Still for that read-out and setting: with `COc1cc(F)ccc1C(=O)N1CC2(CC(c3cc(C)nn3-c3ccccc3C)C2)C1` [Compound 149] the figure was more than 10 µM.
For the molecule `Cc1cc(C2CC3(C2)CN(Cc2cc(O)ccc2F)C3)n(-c2ccccc2C)n1` [Compound 150, 4-fluoro-3-((6-(3-methyl-1-(o-tolyl)-1H-pyrazol-5-yl)-2-azaspiro[3.3]heptan-2-yl)methyl) phenol], in test [1] (read-out: Potency (MAGL inhibition)), the IC50 is more than 10 µM.
Consider `Cc1cc(C2CC3(C2)CN(C2CCOc4ccccc42)C3)n(-c2ccccc2C)n1` (stereo not drawn) [Compound 152], for which the IC50 in test [2] (setting [6]) is more than 10 µM.
Same read-out and setting: with `Cc1cc(C2CC3(C2)CN([C@@H]2CCOc4ccccc42)C3)n(-c2ccccc2C)n1` [Compound 153] the figure was more than 10 µM; with `Cc1cc(C2CC3(C2)CN([C@H]2COc4ccccc42)C3)n(-c2ccccc2C)n1` [Compound 154], more than 10 µM.
Regarding `Cc1cc(C2CC3(C2)CN([C@@H]2COc4ccccc42)C3)n(-c2ccccc2C)n1` [Compound 155], the IC50 in test [2] (setting [6]) was more than 10 µM.
On to `Cc1cc(C2CC3(C2)CN(C(=O)c2ccc(F)cc2OCC(F)(F)F)C3)n(-c2ccccc2C)n1` [Compound 178, [4-fluoro-2-(2,2,2-trifluoroethoxy)phenyl]{6-[3-methyl-1-(o-tolyl)-5-pyrazolyl]-2-aza-2-spiro[3.3]heptyl}methanone], for which the IC50 in test [2] (setting [4]) is less than 0.05 µM; in test [2] (setting [5]) it was less than 0.05 µM; in test [2] (Method 5: Cayman Chemical MAGL enzyme, 25 nM, read-out: MAGL Potency (Detection Method)), less than 0.05 µM.
In the case of `Cc1cc(C2CC3(C2)CN(C(=O)c2ccoc2)C3)n(-c2ccccc2C)n1` [Compound 179], the IC50 in test [2] (setting [6]) was more than 10 µM.
In the case of `Cc1cc(C2CC3(C2)CN(C(=O)c2cccn2C)C3)n(-c2ccccc2C)n1` [Compound 181], the IC50 in test [2] (setting [6]) is more than 10 µM.
Take `Cc1cc(C2CC3(C2)CN(C(=O)c2ccn(C)c2)C3)n(-c2ccccc2C)n1` [Compound 182]: the IC50 in test [2] (setting [6]) was more than 10 µM.
Same read-out and setting: with `Cc1cc(C2CC3(C2)CN(C(=O)c2ccc[nH]2)C3)n(-c2ccccc2C)n1` [Compound 183] the figure was more than 10 µM; with `Cc1cc(C2CC3(C2)CN(C(=O)c2cc[nH]c2)C3)n(-c2ccccc2C)n1` [Compound 184], more than 10 µM.
The same measure, in the same setting: in the case of `CCOc1cc(F)ccc1C(=O)N1CC2(CC(C(=O)Nc3ccccc3C)C2)C1` [Compound 188] it was more than 10 µM.
Take `CCOc1cc(F)ccc1C(=O)N1CC2(CC(C(=O)N(C)c3cccnc3C)C2)C1` [Compound 198]: the IC50 in test [2] (Method 4: Cayman Chemical MAGL enzyme, 15 nM, read-out: Potency (MAGL inhibition)) was more than 10 µM.
For `Cc1cc(C2CC3(C2)CN(C(=O)c2cc(O)ccc2F)C3)n(-c2cc(F)ccc2C)n1` [Compound 365, (2-fluoro-5-hydroxyphenyl) {6-[1-(5-fluoro-2-tolyl)-3-methyl-5-pyrazolyl]-2-aza-2-spiro[3.3]heptyl}methanone], the IC50 in test [1] (setting [7]) is less than 0.05 µM.
Same read-out and setting: in the case of `Cc1cc(C2CC3(C2)CN(C(=O)c2cc(O)ccc2F)C3)n(-c2ccccc2C(F)(F)F)n1` [Compound 366, (2-fluoro-5-hydroxyphenyl) (6-{3-methyl-1-[o-(trifluoromethyl)phenyl]-5-pyrazolyl}-2-aza-2-spiro[3.3]heptyl) methanone] it was less than 0.05 µM; in that of `Cc1ccccc1-n1nccc1C1CC2(C1)CN(C(=O)c1cc(O)ccc1F)C2` [Compound 367, (2-fluoro-5-hydroxyphenyl) (6-(1-(o-tolyl)-1H-pyrazol-5-yl)-2-azaspiro [3.3]heptan-2-yl) methanone], 0.05 to 0.15 µM.
Take `Cc1cc(C2CC3(C2)CN(C(=O)c2cc4c(cc2F)CCO4)C3)n(-c2ccccc2C)n1` [Compound 368]: the IC50 in test [1] (setting [8]) is more than 10 µM.
Still for that read-out and setting: with `O=C(c1cc(O)ccc1F)N1CC2(CC(C(=O)N3CCOCC3)C2)C1` [Compound 384] the figure was more than 10 µM; with `O=C(c1cc(O)ccc1F)N1CC2(CC(C(=O)N3CCCC3)C2)C1` [Compound 388], more than 10 µM.
Same read-out and setting: in the case of `O=C(c1cc(O)ccc1F)N1CC2(CC(C(=O)N3CCC4(COC4)C3)C2)C1` [Compound 391] it was more than 10 µM; in that of `O=C(NCC1COC1)C1CC2(C1)CN(C(=O)c1cc(O)ccc1F)C2` [Compound 395], more than 10 µM.
Same read-out and setting: with `O=C(c1cc(O)ccc1F)N1CC2(CC(C(=O)N3CCC4(CCCO4)C3)C2)C1` (stereo not drawn) [Compound 400] the figure was more than 10 µM; with `Cc1cc(C2CC3(C2)CN(C(=O)c2ccc4c(c2)OCC4)C3)n(-c2ccccc2C)n1` [Compound 402], more than 10 µM; with `Cc1cc(C2CC3(C2)CN(C(=O)c2cccc4c2CCO4)C3)n(-c2ccccc2C)n1` [Compound 403], more than 10 µM.
In the case of `Cc1cnn(C2CC3(C2)CN(C(=O)c2cc(O)ccc2F)C3)c1-c1ccccc1Cl` [Compound 404], the IC50 in test [1] (setting [9]) was more than 10 µM.
On the same count and under the same terms, with `Cc1ccccc1-c1c(C)cnn1C1CC2(C1)CN(C(=O)c1cc(O)ccc1F)C2` [Compound 405] the figure was more than 10 µM.
For `Cc1cc(-c2ccccc2C)n(C2CC3(C2)CN(C(=O)c2cc(O)ccc2F)C3)n1` [Compound 406], the IC50 in test [1] (setting [9]) was more than 10 µM.
Still for that read-out and setting: with `Cc1cn(C2CC3(C2)CN(C(=O)c2cc(O)ccc2F)C3)nc1-c1ccccc1Cl` [Compound 416] the figure was more than 10 µM; with `O=C(c1ccc(F)cc1OC1CC1)N1CC2(CC(n3nc(C(F)(F)F)cc3-c3ccccc3C(F)(F)F)C2)C1` [Compound 424, (2-cyclopropoxy-4-fluorophenyl) (6-(3-(trifluoromethyl)-5-(2-(trifluoromethyl)phenyl)-1H-pyrazol-1-yl)-2-azaspiro[3.3]heptan-2-yl) methanone], more than 10 µM.
Take `Cc1cc(-c2cc(F)ccc2C)n(C2CC3(C2)CN(C(=O)c2ccc(F)cc2OC(F)(F)F)C3)n1` [Compound 427]: in test [2] (Method 11: Reaction Biology MAGL enzyme, Conc 20 (text: 25 nM), read-out: Potency (MAGL inhibition)), the IC50 is more than 10 µM.
`Cc1ccccc1-c1ccn(C2CC3(C2)CN(C(=O)c2cc(O)ccc2F)C3)n1` [Compound 441]: the IC50 in test [1] (setting [9]) is more than 10 µM.
The same measure, in the same setting: in the case of `Cc1ccccc1-c1cc(C)n(C2CC3(C2)CN(C(=O)c2cc(O)ccc2F)C3)n1` [Compound 442] it was more than 10 µM; in that of `O=C(c1cc(O)ccc1F)N1CC2(CC(n3cc(C4CC4)c(-c4ccccc4Cl)n3)C2)C1` [Compound 445], more than 10 µM.
`Cc1cnn(C2CC3(C2)CN(C(=O)c2cc(O)ccc2F)C3)c1-c1ccccc1F` [Compound 494]: the IC50 in test [2] (setting [10]) is more than 10 µM.
With `Cc1cn(C2CC3(C2)CN(C(=O)c2cc(O)ccc2C(F)(F)F)C3)nc1-c1ccccc1F` [Compound 495], the IC50 in test [2] (setting [10]) was more than 10 µM.
On the same count and under the same terms, with `O=C(c1c(F)cccc1OC1CC1)N1CC2(CC(n3ncc(C(F)(F)F)c3-c3ccccc3F)C2)C1` [Compound 521] the figure was more than 10 µM.

(Values after patent US20250170100A1, “MONOACYLGLYCEROL LIPASE INHIBITORS AND USE THEREOF FOR THE TREATMENT OF ANXIETY AND RELATED CONDITIONS” (Psy Therapeutics, Inc., priority 2021, published 2025).)
